Where two headings read alike, the source gives them in different places.
Tests used:
[1] = tested on: N2a cells; assay: MTT cell viability assay, N2a; format: cell-based, mouse; settings: Mus musculus
Procedure: N2a, SH-SY5Y, SK-N-BE (2), 10A, HUVEC, HL7702 cells were plated in 96-well plates at 8,000 cells/well, respectively, in complete media in triplicate wells for each dose and cultured for 18 h. The neuroblastoma cell lines, N2a, SH-SY5Y, and SK-N-BE (2), and non-cancer cell lines, 10A, HUVEC, and HL7702, were treated with simvastatin and fluvastatin in a range of doses from 0 to 20 μM and with AA from 0 to 30 μM; N2a, SH-SY5Y SK-N-BE (2), were treated with rosuvastatin in a range of doses from 0 to 100 μM for 72 h. Statins dissolved in DMSO and AA dissolved in ethanol. After 72 h treatment, the medium was added 0.5 mg/ml MTT reagent and incubated at 37°C for 4 h. Subsequently, the supernatant was aspirated, and cells were lysed in 150 µl DMSO, then shaken 10 min at 37°C. The optical density (OD) was measured at 570 and 630 nm using a plate reader.

[2] = tested on: SH-SY5Y xenografts; assay: SH-SY5Y tumor xenograft study; format: in vivo, BALB/c nude mice; settings: Sim 20 mg/kg, oral daily
Source text: Four weeks old BALB/c nude mice of both sexes were purchased from Vital River Laboratory Animal Technology Co., Ltd. (Beijing, China) and maintained under specific pathogen-free conditions. Male mice were castrated 5 days before cell inoculation. […] Then, all the mice were divided randomly into four groups: control group (Placebo, n = 7), simvastatin group (Sim, n = 6), abiraterone acetate group (AA, n = 6), and combination group (Com, n = 6) including three male mice in each group. […] AA 150 mg/kg/day; combined simvastatin 10 mg/kg/day with AA 75 mg/kg/day. Tumor was harvested after 10 days of dosing, then fixed half of a tumor in 4% buffered formaldehyde for IHC and the other half was stored −80°C for RT-PCR and Western Blots analysis.

[3] = tested on: U87MG; design: method as in Supplement [1]; key: Positive: Simvastatin alone inhibited the progression of cancer; Negative: Simvastatin alone could not inhibit the progression of cancer; settings: Glioma, 2.5 mg/kg/day, s.c.; ref Supplement [1]; cited from earlier work
[4] = tested on: GL-26 cells; design: method as in Supplement [2]; key: Positive: Simvastatin alone inhibited the progression of cancer; Negative: Simvastatin alone could not inhibit the progression of cancer; settings: Human glioblastoma multiforme, 1.0 mg/kg/day or 10.0 mg/kg/day, oral; ref Supplement [2]; cited from earlier work
[5] = tested on: TSC2-null cells from the primary tumors; design: method as in Supplement [3]; key: Positive: Simvastatin alone inhibited the progression of cancer; Negative: Simvastatin alone could not inhibit the progression of cancer; settings: Pulmonary Lymphangioleiomyomatosis, 100.0 mg/kg/day, oral; ref Supplement [3]; cited from earlier work
[6] = tested on: SNU-5 cells; design: method as in Supplement [6]; key: Positive: Simvastatin alone inhibited the progression of cancer; Negative: Simvastatin alone could not inhibit the progression of cancer; settings: Gastric Cancer, 2.1 mg/kg/day, i.p.; ref Supplement [6]; cited from earlier work
[7] = tested on: CAPAN-2 cells; design: method as in Supplement [8]; key: Positive: Simvastatin alone inhibited the progression of cancer; Negative: Simvastatin alone could not inhibit the progression of cancer; settings: Pancreatic Cancer, 0.5 mg/kg/day, oral; ref Supplement [8]; cited from earlier work
[8] = tested on: Panc-1 cells from the primary tumors; design: method as in Supplement [9]; key: Positive: Simvastatin alone inhibited the progression of cancer; Negative: Simvastatin alone could not inhibit the progression of cancer; settings: Pancreatic Ductal Adenocarcinoma, 20.0 mg/kg/day, i.p.; ref Supplement [9]; cited from earlier work
[9] = tested on: 22RV1 cells; design: key to Results (simvastatin alone): Positive: Simvastatin alone inhibited the progression of cancer; Negative: Simvastatin alone could not inhibit the progression of cancer; settings: Prostate Cancer, 25.0 mg/kg/day, i.p.; ref Supplement [15]; cited from earlier work
[10] = tested on: PC-3 cells; design: key to Results (simvastatin alone): Positive: Simvastatin alone inhibited the progression of cancer; Negative: Simvastatin alone could not inhibit the progression of cancer; settings: Prostate Cancer, i.p., cited from earlier work
[11] = tested on: K562 cells; design: key: Positive: Simvastatin alone inhibited the progression of cancer; Negative: Simvastatin alone could not inhibit the progression of cancer; settings: Chronic Myelogenous Leukemia, i.p., cited from earlier work

CCC(C)(C)C(=O)O[C@H]1C[C@@H](C)C=C2C=C[C@H](C)[C@H](CC[C@@H]3C[C@@H](O)CC(=O)O3)[C@H]21 [Simvastatin]
IC50 ([1]; N2a, NB cell line, MTT, 72 h): 6.07 µM | inhibition at 1.5 µM ([1]; N2a cells, 1.5 μM simvastatin, read-out: inhibition rate): ~10% | tumor growth [2]: tumor growth delay | Results (simvastatin alone) [3]: Positive | Results (simvastatin alone) [4]: Negative | Results (simvastatin alone) [5]: Positive | Results (simvastatin alone) [6]: Positive | Results (simvastatin alone) [7]: Positive | Results (simvastatin alone) [8]: Positive | Results (simvastatin alone) [9]: Positive | Results (simvastatin alone) ([10]; 2.0 mg/kg/day or 4.0 mg/kg/day, ref Supplement [18]): Positive | Results (simvastatin alone) ([10]; 2.1 mg/kg/day or 21.0 mg/kg/day, ref Supplement [19]): Positive | Results (simvastatin alone) ([10]; 4.0 mg/kg/day, ref Supplement [17]): Positive | Results (simvastatin alone) ([11]; 1.3 mg/kg/day or 2.0 mg/kg/day, ref Supplement [26]): Positive | Results (simvastatin alone) ([11]; 7.1 mg/kg/day or 14.3 mg/kg/day, ref Supplement [27]): Positive
